Experimental data published in paper PMC6006164, “Natural cyclopeptide RA-V inhibits the NF-κB signaling pathway by targeting TAK1” (Cell Death & Disease, 2018).

Assays:
TAK1–TAB1 interaction = molecular target: T1, TAK1–TAB1 interaction (Homo sapiens, UniProt O43318+Q15750); assay: Co-immunoprecipitation of TAK1 and TAB1; assay type: cell-based; details: HEK293T, Flag-TAK1 and HA-TAB1; RA-V 800 nM 6 h
T1 construct: expressed in transfected cells; host or cells: HEK293T
T1 sequence (O43318 1-579 isoform O43318-2): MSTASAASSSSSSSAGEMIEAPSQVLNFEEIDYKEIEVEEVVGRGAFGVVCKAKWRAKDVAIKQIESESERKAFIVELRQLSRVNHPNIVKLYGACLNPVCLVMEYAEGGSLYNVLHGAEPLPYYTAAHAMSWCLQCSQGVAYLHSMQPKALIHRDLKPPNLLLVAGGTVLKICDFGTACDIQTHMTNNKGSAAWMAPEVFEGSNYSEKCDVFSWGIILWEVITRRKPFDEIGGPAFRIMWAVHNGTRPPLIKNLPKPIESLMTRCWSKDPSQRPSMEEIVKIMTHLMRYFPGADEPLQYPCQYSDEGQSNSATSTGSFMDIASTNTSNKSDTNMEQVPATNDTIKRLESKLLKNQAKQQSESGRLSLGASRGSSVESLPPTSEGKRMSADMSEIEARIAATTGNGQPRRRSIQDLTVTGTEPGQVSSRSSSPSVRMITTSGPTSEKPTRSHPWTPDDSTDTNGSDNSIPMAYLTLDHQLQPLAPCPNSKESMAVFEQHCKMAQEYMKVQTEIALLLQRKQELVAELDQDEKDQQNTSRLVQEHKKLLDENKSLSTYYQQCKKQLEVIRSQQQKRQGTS
T1 sequence (Q15750 1-504 partner): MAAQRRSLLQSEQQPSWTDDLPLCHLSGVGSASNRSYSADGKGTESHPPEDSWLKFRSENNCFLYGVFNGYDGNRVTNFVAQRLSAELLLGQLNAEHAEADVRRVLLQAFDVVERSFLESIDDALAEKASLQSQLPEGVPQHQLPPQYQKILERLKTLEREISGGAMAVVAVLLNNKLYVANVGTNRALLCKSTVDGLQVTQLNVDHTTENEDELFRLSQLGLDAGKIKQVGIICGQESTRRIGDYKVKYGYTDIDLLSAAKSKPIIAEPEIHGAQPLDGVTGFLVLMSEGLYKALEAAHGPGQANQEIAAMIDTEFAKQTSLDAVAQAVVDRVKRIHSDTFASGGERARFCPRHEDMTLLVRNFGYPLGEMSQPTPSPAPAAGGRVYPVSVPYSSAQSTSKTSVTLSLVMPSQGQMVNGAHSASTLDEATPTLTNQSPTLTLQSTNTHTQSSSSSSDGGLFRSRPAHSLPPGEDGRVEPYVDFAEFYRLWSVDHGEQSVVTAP
Experimental: Fig. 4 RA-V blocks the interaction between TAK1 and TAB2. a RA-V blocked the exogenous TAK1–TAB2 interaction. HEK293T cells were transfected with Flag-TAK1 and HA-TAB2 for 24 h and then incubated with various concentrations of RA-V for 6 h. […] HEK293T cells were transfected with Flag-TAK1 and HA-TRAF6 or HA-TAB1 for 24 h and then incubated with RA-V (800 nM) for 6 h. The cell lysates were immunoprecipitated with HA antibody, and immunoblots were performed with the indicated antibodies. d RA-V blocked the endogenous TAK1–TAB2 interaction. HEK293T (left) or RAW264.7 (right) cells were incubated with 800 nM RA-V for 6 h and stimulated with 10 ng/mL TNF-α for 2 h or 1 μg/mL LPS for 3 h, respectively. The cell lysates were immunoprecipitated with TAK1 antibody or control IgG and then immunoblotted with the indicated antibodies. Each experiment was repeated at least three times
The cell lysates were prepared using radioimmunoprecipitation (RIPA) buffer containing 50 mM Tris-HCl pH 7.4, 150 mM NaCl, 1 mM ethylenediaminetetraacetic acid, 1% Triton X-100, 0.5% deoxycholate, and 0.1% sodium dodecyl sulfate, to which protease inhibitors (Roche) were added. The lysates were incubated with the indicated antibodies before adding 20 μL of Protein A/G agarose for 2 h. After four washes with the same buffer, the immunoprecipitates were boiled in 2 × SDS loading buffer.

[1] = system: TAK1, JNK, ERK, p38, and IKKα/β phosphorylation; assay: Western blot of TAK1 and downstream kinase phosphorylation; assay type: cell-based; details: HeLa; RA-V 12 h, 10 ng/mL TNF-α 10 min
Experimental: HEK293T cells were transfected with TAK1-N or TAK1-C for 24 h. The cells lysates were incubated with CB12 or biotin and precipitated with streptavidin-coated sepharose and were analyzed by immunoblotting with Flag antibody. b The model for RA-V binding to the crystal structure of the TAK1–TAB1 fusion protein (PDB 4GS6). The blue dotted lines represent the hydrogen bonds between RA-V (green) and TAK1–TAB1. c RA-V probably binds the ATP-binding pocket of TAK1. HEK293T cells were transfected with TAK1 for 24 h, and then the cell lysates were incubated with biotin or CB12 before precipitation with streptavidin agarose. The immunoprecipitates were treated with ATP or (5Z)-7-oxozeaenol and western blotted with Flag antibody. d RA-V inhibits TAK1, JNK, ERK, p38, and IKKα/β phosphorylation. HeLa cells were incubated with various concentrations of RA-V for 12 h and then treated with 10 ng/mL TNF-α for 10 min. The cell lysates were prepared and western blotted with the indicated antibodies. Each experiment was repeated at least three times
For western blot analysis, the samples were equally subjected to sodium dodecyl sulfate polyacrylamide gel electrophoresis (SDS-PAGE) and transferred to polyvinylidene difluoride membranes (Millipore). […] The protein bands were detected with the SuperSignal West Pico Chemiluminescent Substrate (Pierce).

RA-V
TAK1–TAB1 interaction (TAK1–TAB1 interaction): does not disrupt | phosphorylation of TAK1 and of IKKα/β, JNK, ERK, and p38 [1]: inhibited
